# Target: mu opioid receptor (MOR) (Rattus norvegicus, UniProt P33535)
# Experiment: Stimulation of [35S]GTPγS binding, C6-MOR membranes
# Assay type: biochemical
# Settings: 10 μM peptide compared to 10 μM DAMGO
# Chain of mu opioid receptor (MOR) (P33535 whole entry): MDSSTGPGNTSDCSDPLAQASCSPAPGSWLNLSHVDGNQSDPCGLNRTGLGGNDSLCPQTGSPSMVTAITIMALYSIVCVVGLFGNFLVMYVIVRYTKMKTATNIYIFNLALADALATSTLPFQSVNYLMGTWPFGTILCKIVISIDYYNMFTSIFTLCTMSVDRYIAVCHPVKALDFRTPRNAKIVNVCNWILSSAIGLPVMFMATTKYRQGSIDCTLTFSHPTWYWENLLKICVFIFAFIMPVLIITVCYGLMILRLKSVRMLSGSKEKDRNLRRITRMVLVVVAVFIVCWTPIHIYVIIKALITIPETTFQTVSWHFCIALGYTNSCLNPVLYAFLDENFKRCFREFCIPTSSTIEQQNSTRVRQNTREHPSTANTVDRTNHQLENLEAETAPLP
structure (smiles),measurement,value
NC(=O)[C@H](Cc1ccccc1)NC(=O)[C@H](Cc1ccccc1)NC(=O)[C@@H]1CCCN1C(=O)[C@@H](N)Cc1ccc(O)cc1 [endomorphin-2],MOR % max. stimulation of [35S]GTPγS binding,49 ± 7%

# From PMC3241856 (ACS chemical biology, 2011)
